The values below come from paper PMC12168975 (Drug Design, Development and Therapy, 2025).

SMILES strings stand for the structures. Structures can show the parent of a compound that is named as a salt. Where two headings read alike, the source gives them in different places.

The conditions of data set [1]: cited from earlier work.
A short description of data set [2]: Stability of simulated plasma. The format is physicochemical, rat. Particulars: simulated plasma samples; freeze-thaw cycles, room temperature storage and autosampler storage; found to be stable.
For data set [3] the following is noted: poor solubility and permeability; cited from earlier work.
Data set [4] is described as follows: Pharmacokinetic drug-drug interaction study of BBR, TOFA and FIGA in rats. The format is in vivo, Sprague-Dawley rats.
For data set [5] the following is noted: cited from earlier work. This is another data set of the same source.
Where [6] appears, read: FIGA co-administered with itraconazole.
The mark [7] stands for this setting: FIGA co-administered with rifampin.
Setting [8] is: FIGA combined with berberine hydrochloride compared to FIGA alone.
The mark [9] stands for this setting: TOFA combined with BBR compared to TOFA alone.

Regarding `COc1ccc2cc3[n+](cc2c1OC)CCc1cc2c(cc1-3)OCO2` [BBR, berberine hydrochloride], the oral bioavailability in data set [1] (ref 20) is 5%; in data set [1] (ref 35), “lower than 5%”. In data set [2], the “relative errors (RE %) of stability assessment” value (“relative errors (RE %)” below) was “less than 15.0%”. Besides, the “Biopharmaceutics Classification System class” value in data set [3] was “Class IV”. Further, the “effect of concomitant TOFA and FIGA on the pharmacokinetic parameters of BBR” value in data set [4] (BBR with vs without TOFA or FIGA) is “no significant differences”.
Regarding `O=C(Nc1nc2cccc(-c3ccc(CN4CCS(=O)(=O)CC4)cc3)n2n1)C1CC1` [FIGA, Filgotinib], the “relative errors (RE %)” value in data set [2] is “less than 15.0%”. Moreover, in data set [5] (setting [6]), the “increase of Cmax” value is listed as 64% and the increase of bioavailability is 45%. Also, in data set [5] (setting [7]), the “reduction of Cmax” value is given as 26% and the reduction of bioavailability was 27%. In data set [4] (setting [8]), the “decrease in CL” value is 1.64 fold, the “decrease in Tmax” value is 2.09 fold, the “increase in AUC(0-t)” value was 1.67 fold and the “increase in Cmax” value is recorded as 2.26 fold.
With `C[C@@H]1CCN(C(=O)CC#N)C[C@@H]1N(C)c1ncnc2[nH]ccc12` [TOFA, Tofacitinib], the “relative errors (RE %)” value in data set [2] is “less than 15.0%”. Besides, in data set [4] (setting [9]), the “decrease in AUC(0-t)” value is 1.76 fold, the “increase in CL” value came out at 1.63 fold and the “increase in time to peak concentration” value turned out to be 2.49 fold.
